Experiments:
[1] = system: MDA-MB-231 cells; experiment: Cell proliferation/viability; type: cell-based, human; settings: MDA-MB-231, doses of the MMP-2 cleavage experiment (1-10 μM)
[2] = system: MDA-MB-231 cells; experiment: In vivo spontaneous metastasis assay; design: species or system nude mice; settings: 42 days
[3] = molecular target: cathepsin-L (Homo sapiens, UniProt P07711); experiment: Inhibition specificity assay, cathepsin-L; type: biochemical
[4] = system: endogenous MMP-2 cleavage; experiment: Gelatin zymography: endogenous MMP-2 cleavage in MDA-MB-231 cells; type: cell-based, human; settings: MDA-MB-231, 1, 2, 5 and 10 μM
[5] = Toxicity observations in treated tumor-bearing mice; type: in vivo, nude mice; settings: 3 or 10 mg/kg oral, 42 days
[6] = molecular target: T1, AEP (Homo sapiens, UniProt Q99538); experiment: IC50 assay against pure AEP; type: biochemical
T1 sequence (Q99538 18-323 limits assumed): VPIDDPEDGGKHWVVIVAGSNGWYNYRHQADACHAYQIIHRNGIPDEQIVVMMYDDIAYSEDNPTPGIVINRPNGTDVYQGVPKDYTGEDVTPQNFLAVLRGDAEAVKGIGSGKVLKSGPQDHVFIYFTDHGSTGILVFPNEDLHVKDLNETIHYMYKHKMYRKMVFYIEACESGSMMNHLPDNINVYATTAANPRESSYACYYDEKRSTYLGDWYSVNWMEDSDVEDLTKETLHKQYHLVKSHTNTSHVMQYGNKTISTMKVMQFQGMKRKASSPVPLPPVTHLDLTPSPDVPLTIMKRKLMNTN

[7] = molecular target: T1, AEP; experiment: Inhibition kinetics assay of AEP
[8] = molecular target: T1, AEP; experiment: Time course inactivation assay of AEP; type: biochemical; settings: nonlinear progress curves
[9] = system: major cytochrome P450 isozymes; settings: cited from earlier work
[10] = in the presence or absence of NADPH; cited from earlier work
[11] = system: CaCo-2 cells; experiment: Caco-2 permeability assay; type: in vitro ADME
[12] = molecular target: T2, purified, active AEP (Homo sapiens, UniProt Q99538); experiment: SAR analysis: residual activity of purified, active AEP; settings: 1 μM compound, 50 nM AEP, 5 μM substrate peptide
T2 sequence (Q99538 18-323 limits assumed): T1 sequence (Q99538 18-323 limits assumed)

Sequence of cathepsin-L (P07711 114-333, species assumed): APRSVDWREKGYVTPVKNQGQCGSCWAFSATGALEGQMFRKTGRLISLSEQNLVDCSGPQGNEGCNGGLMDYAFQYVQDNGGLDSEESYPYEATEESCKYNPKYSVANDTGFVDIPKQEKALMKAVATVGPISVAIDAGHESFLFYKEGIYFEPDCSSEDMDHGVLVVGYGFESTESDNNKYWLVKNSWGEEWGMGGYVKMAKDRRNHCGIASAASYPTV

For `CCn1c(=O)c2c(nc(S)n2C)n(C)c1=O` [compound 38u], the cell viability [1] was “not affected”, the “number of metastatic lung nodules” value ([2]; 3 mg/kg oral gavage) was “significantly decreased” and the “lung metastasis (nodules)” value ([2]; 10 mg/kg oral gavage) was “almost completely prevented”. The “mammary tumor weight or volume versus control” value ([2]; 3 or 10 mg/kg oral, data not shown) was “no significant difference”, the “inhibition of cathepsin-L” value [3] was “able to inhibit” and the “endogenous MMP-2 cleavage” value [4] was “inhibited in a dose-dependent manner”. For the same compound, the “complete blood count (CBC) versus vehicle” value [5] was “no significant difference”, the “pathological examination of major organs (kidney, liver, bone marrow)” value [5] was “did not exhibit any significant amount of toxicity” and the “size of the liver versus vehicle” value [5] was “remained similar”. For the same compound, the “size of the spleen versus control” value [5] was “slight increase” and the “toxicity by body weight versus control” value [5] was “no significant toxicity”.

For `Cn1c(=O)c2c(nc(S)n2C)n(C)c1=O` [38p], the “increased potency against AEP compared to compound 38” value [6] was “about 2 fold”, the “IC50 against AEP” value ([6]; 10 μM Cbz-Ala-Ala-Asn-AMC, 50 nM AEP) was “submicromolar” and the “inhibition of cathepsin-L” value [3] was “able to inhibit”.

For `Cn1c(=O)[nH]c(=O)c2c1nc(S)n2CC(O)COc1ccc(Cl)cc1` (centres unmarked) [compound 38], the mechanism of inhibition [7] is given as “competitively inhibits”, the “binding behaviour from time course inactivation” value [8] is given as “slow-binding inhibitor” and the “inhibition of major cytochrome P450 isozymes” value [9] is given as “did not significantly inhibit”. The “stability in liver microsomes” value [10] was “stable” and the “Caco-2 cell permeability (in words)” value [11] was “minimal”.

With `Cn1c(=O)[nH]c(=O)c2c1nc(S)n2C[C@H](O)COc1ccccc1` [compound 38k] the “loss in activity relative to parent compound 38” value [12] was greater than 2 fold.

— publication PMC5871875 (Journal of medicinal chemistry, 2017)
